Each molecule was assayed against T1, CXCR3 (Homo sapiens, UniProt P49682) (assay: CXCR3 Ca2+ mobilization (FLIPR), stable hCXCR3-CHO cell line, I-TAC stimulated). Conditions: hCXCR3-CHO cells, I-TAC 100 nM stimulated Ca2+ response; read-out: Ca-ITAC.
T1 sequence (P49682 1-368): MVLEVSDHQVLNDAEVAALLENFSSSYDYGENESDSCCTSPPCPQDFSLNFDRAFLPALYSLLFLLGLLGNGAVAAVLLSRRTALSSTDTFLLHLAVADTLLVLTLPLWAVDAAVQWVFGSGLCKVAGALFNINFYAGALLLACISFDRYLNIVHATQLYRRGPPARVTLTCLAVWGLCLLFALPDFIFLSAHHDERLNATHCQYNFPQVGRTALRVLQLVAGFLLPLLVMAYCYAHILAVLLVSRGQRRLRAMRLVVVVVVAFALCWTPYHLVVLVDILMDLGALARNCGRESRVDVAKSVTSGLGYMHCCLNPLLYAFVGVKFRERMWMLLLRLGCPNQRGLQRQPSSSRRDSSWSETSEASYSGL
Format: cell-based
Design: host or cells: CHO cells stably expressing hCXCR3
Description: Human chinese hamster ovary (CHO) cell line stably expressing hCXCR3 was purchased from Euroscreen (Belgium) and culture in HAM's F12 (Invitrogen) containing 10% heat inactivated fetal calf serum (Cancerra, Australia), 50 units ml−1 penicillin, 50 μml−1 streptomycin, (Invitrogen, USA) and 400 μg/ml geneticin (G418) (Calbiochem, San Diego), according to the manufacturer.
CXCR3Ca^2+ mobilization was measured using a stable hCXCR3—CHO cell line and a microtiter-plate based assay using FLIPR^TETRA™ (Molecular Devices). In more detail, cells were harvested and plated into black 384-well plates (Becton-Dickinson) at a density of 15 000 cells per well and grown in the incubator for 18 hours. On the next day the media was aspirated and replaced with the cell loading buffer (HBSS—(Invitrogen) based buffer containing calcium indicator and signal enhancer from a commercial Ca2+ assay kit (Becton Dickinson). The plates were incubated for 60 minutes in the incubator, the test compounds were added and the plates equilibrated for 20 minutes at room temperature.
Plates were placed into FLIPR and the CXCR3 agonist (I-TAC, 100 nM) stimulated fluorescence change was quantitated. The activity of CXCR3 antagonists was determined as percent of the CXCR3 ligand I-TAC in the absence of the test compounds (=100% activity).

SMILES | IC50 [nM]
COc1ccc(S(=O)(=O)N(Cc2ccccc2)Cc2ccc(C(=O)NCc3ccccc3)cc2)cc1 [Example 31] | 1900
O=C(NCc1ccccc1)c1ccc(CN(Cc2ccccc2)S(=O)(=O)c2ccc(F)cc2)cc1 [Example 32] | 3900
O=C(NCc1ccccc1)c1ccc(CN(Cc2ccc(F)cc2)S(=O)(=O)c2ccc(Cl)cc2)cc1 [Example 34, 4-{[[(4-chlorophenyl)sulfonyl](4-fluorobenzyl)amino]methyl}-N-phenyl methyl benzamide] | 1800
COc1ccc(CN(Cc2ccc(C(=O)NCc3ccccc3)cc2)S(=O)(=O)c2ccc(Cl)cc2)cc1 [Example 35, 4-{[(4-Chloro-benzenesulfonyl)-(4-methoxybenzyl)-amino]-methyl}-N-phenyl methyl benzamide] | 6000
O=C(NCc1ccccc1)c1ccc(CN(Cc2ccccc2)S(=O)(=O)c2ccc(Cl)nc2)cc1 [Example 36] | 150
COc1cccc(CN(Cc2ccc(C(=O)NCc3ccccc3)cc2)S(=O)(=O)c2ccc(Cl)cc2)c1 [Example 38, 4-{[(4-Chloro-benzenesulfonyl)-(3-methoxybenzyl)-amino]-methyl}-N-phenyl methyl benzamide] | 10000
O=C(NCC1CC1)c1ccc(CN(Cc2ccccn2)S(=O)(=O)c2ccc(Cl)c(Cl)c2)cc1 [Example 45] | 13000
O=C(NC1(c2ccccc2)CC1)c1ccc(CN(Cc2ccccn2)S(=O)(=O)c2ccc(Cl)c(Cl)c2)cc1 [Example 46] | 705
CS(=O)(=O)NC(=O)c1ccc(CN(Cc2ccccn2)S(=O)(=O)c2ccc(Cl)cc2)cc1 [Example 48, N-(methanesulfonyl)-4{[[(4-chlorophenyl)sulfonyl](pyridin-2-ylmethyl)amino]methyl}benzamide] | 8300
O=C(NS(=O)(=O)C1CC1)c1ccc(CN(Cc2ccccn2)S(=O)(=O)c2ccc(Cl)cc2)cc1 [Example 49, N-(cyclopropanesulfonyl)-4-{[[(4-chlorophenyl)sulfonyl](pyridin-2-ylmethyl)amino]methyl}benzamide] | 5600
O=C(NS(=O)(=O)c1cccnc1)c1ccc(CN(Cc2ccccn2)S(=O)(=O)c2ccc(Cl)cc2)cc1 [Example 52, N-(3-pyridylsulfonyl)-4-{[[(4-chlorophenyl)sulfonyl](pyridin-2-ylmethyl)amino]methyl}benzamide] | 285
CCS(=O)(=O)NC(=O)c1ccc(CN(Cc2ccccn2)S(=O)(=O)c2ccc(Cl)cc2)cc1 [Example 55, N-(ethanesulfonyl)-4-{[[(4-chlorophenyl)sulfonyl](pyridin-2-yl-methyl)amino]methyl}benzamide] | 11000
O=S(=O)(c1ccc(Cl)cc1)N(Cc1ccc(-c2nnn[nH]2)cc1)Cc1cc(Cl)ccc1F [Example 61, 4-chloro-N-(5-chloro-2-fluorobenzyl)-N-[4-(2H-tetrazol-5-yl)benzyl]benzene sulfonamide] | 200
O=S(=O)(c1ccc(Cl)cc1)N(Cc1ccc(-c2nnn[nH]2)cc1)Cc1ccc(Cl)cc1F [Example 70, 4-chloro-N-(2-fluoro-4-chlorobenzyl)-N-[4-(2H-tetrazol-5yl)benzyl]benzene sulfonamide] | 3000
O=S(=O)(c1ccc(Cl)cc1Cl)N(Cc1ccc(-c2nnn[nH]2)cc1)Cc1ccccn1 [Example 78] | 3000
Cc1cc(S(=O)(=O)N(Cc2ccc(-c3nnn[nH]3)cc2)Cc2ccccn2)c(F)cc1Cl [Example 79] | 4000
CCOc1ccc(S(=O)(=O)N(Cc2ccc(C(=O)NC3(c4cccc(C#N)c4)CC3)cc2)Cc2ccccn2)cc1 [Example 85] | 4000
CCOc1ccc(S(=O)(=O)N(Cc2ccc(C(=O)NCC(C)c3ccccc3)cc2)Cc2ccccn2)cc1 (stereo not drawn) [Example 86] | 1700
CCOc1ccc(S(=O)(=O)N(Cc2ccc(C(=O)NCCc3ccc(S(N)(=O)=O)cc3)cc2)Cc2cccnc2)cc1 [Example 95] | 2000
O=S(=O)(c1ccc(Cl)cc1)N(Cc1ccc(-c2nnn[nH]2)cc1)Cc1ccccc1-c1ccccc1 [Example 103] | 3450
O=S(=O)(c1ccc(Cl)cc1)N(Cc1ccc(-c2nnn[nH]2)cc1)Cc1ccccc1Oc1ccc(F)cc1 [Example 104] | 1000
CCOc1ccc(S(=O)(=O)N(Cc2ccc(C(=O)N[C@H]3[C@@H]4CN(C(C)=O)C[C@@H]43)cc2)Cc2cccnc2)cc1 [Example 108] | 1800
N#Cc1ccc(S(=O)(=O)N(Cc2ccc(C(=O)NC3(c4cccc(C#N)c4)CC3)cc2)Cc2cccnc2)cc1 [Example 111] | 1500
CC(CNC(=O)c1ccc(CN(Cc2cccnc2)S(=O)(=O)c2ccc(C#N)cc2)cc1)c1ccccc1 (stereo not drawn) [Example 112] | 1250
O=S(=O)(c1ccc(OC(F)(F)F)cc1)N(Cc1ccccc1)Cc1ccc(-c2nnn[nH]2)cc1 [Example 115] | 2000
CCOc1ccc(S(=O)(=O)N(Cc2ccc(C(=O)N[C@H]3[C@@H]4CN(C(=O)c5ccc(OC(F)(F)F)cc5)C[C@@H]43)cc2)Cc2cccnc2)cc1 [Example 116] | 2000

SMILES | IC50 [nM]
CCOc1ccc(S(=O)(=O)N(Cc2ccc(C(=O)N[C@H]3[C@@H]4CN(C(=O)c5ccc(OC(F)(F)F)cc5)C[C@@H]43)cc2)Cc2ccccn2)cc1 [Example 117, 4-{[(4-Ethoxy-benzenesulfonyl)-pyridin-2-ylmethyl-amino]-methyl}-N-[(1S,5R,6S)-3-(4-trifluoromethoxy-benzoyl)-3-aza-bicyclo[3.1.0]hex-6-yl]-benzamide] | 800
CCOc1ccc(C2(NC(=O)c3ccc(CN(Cc4ccccn4)S(=O)(=O)c4ccc(Cl)cc4)cc3)CC2)cc1 [Example 128] | 850
CCOc1ccc(C2(NC(=O)c3ccc(CN(Cc4ccccn4)S(=O)(=O)c4ccc(C#N)cc4)cc3)CC2)cc1 [Example 129] | 2500
CCOc1ccc(C2(NC(=O)c3ccc(CN(Cc4ccccn4)S(=O)(=O)c4ccc(OCC)cc4)cc3)CC2)cc1 [Example 130] | 3000
O=C(NC1(c2ccc(OC(F)(F)F)cc2)CC1)c1ccc(CN(Cc2ccccn2)S(=O)(=O)c2ccc(Cl)cc2)cc1 [Example 131] | 5000
O=C(O)c1ccc(CNC(=O)c2ccc(CN(Cc3ccccn3)S(=O)(=O)c3ccc(Cl)cc3)cc2)cc1 [Example 133] | 2000
Cc1ccc(S(=O)(=O)N(Cc2ccc(-c3nnn[nH]3)cc2)Cc2ccccn2)cc1 [Example 139] | 2000
O=[N+]([O-])c1ccc(S(=O)(=O)N(Cc2ccc(-c3nnn[nH]3)cc2)Cc2ccccn2)cc1 [Example 140] | 2000
CC(C)(C)c1ccc(S(=O)(=O)N(Cc2ccc(-c3nnn[nH]3)cc2)Cc2ccccn2)cc1 [Example 141] | 3000
CCOC(=O)C1(NC(=O)c2ccc(CN(Cc3ccccn3)S(=O)(=O)c3ccc(C#N)cc3)cc2)CC1 [Example 144] | 140
CN(C)c1ccc(CNC(=O)c2ccc(CN(Cc3ccccn3)S(=O)(=O)c3ccc(C#N)cc3)cc2)cn1 [Example 148] | 3000
O=C(NC(C(=O)O)c1ccccc1)c1ccc(CN(Cc2ccccn2)S(=O)(=O)c2ccc(Cl)cc2)cc1 (stereo not drawn) [Example 151] | 150
O=C(N[C@H](C(=O)O)c1ccccc1)c1ccc(CN(Cc2ccccn2)S(=O)(=O)c2ccc(Cl)cc2)cc1 [Example 152] | 750
O=C(N[C@H](Cc1ccccc1)C(=O)O)c1ccc(CN(Cc2ccccn2)S(=O)(=O)c2ccc(Cl)cc2)cc1 [Example 153] | 2000
O=C(N[C@@H](Cc1ccc(O)cc1)C(=O)O)c1ccc(CN(Cc2ccccn2)S(=O)(=O)c2ccc(Cl)cc2)cc1 [Example 154] | 4000
CCOC(=O)c1ccc(CN(Cc2cccnc2)S(=O)(=O)c2ccc(OCC)cc2)cc1 [Example 155] | 2000
CCOC(=O)c1ccc(CN(Cc2cccnc2)S(=O)(=O)c2ccc(C#N)cc2)cc1 [Example 156] | 1900
CCOC(=O)c1ccc(CN(Cc2cccnc2)S(=O)(=O)c2ccc(Cl)cc2)cc1 [Example 159] | 4000
O=S(=O)(c1cccc(Oc2ccccc2)c1)N(Cc1ccc(-c2nnn[nH]2)cc1)Cc1ccccn1 [Example 165] | 1100
C[C@H](c1ccc(NC(=O)C2(c3ccccc3)CC2)cc1)N(Cc1ccccn1)S(=O)(=O)c1ccc(Cl)cc1 [Example 168] | 3330
CC(c1ccc(-c2nnn[nH]2)cc1)N(Cc1ccccc1)S(=O)(=O)c1ccc(Cl)cc1 (stereo not drawn) [Example 171] | 1950
N#Cc1ccc(CN(Cc2ccccn2)S(=O)(=O)c2ccc([N+](=O)[O-])cc2)cc1 [Example 172] | 700
N#Cc1ccc(CN(Cc2ccccn2)S(=O)(=O)c2ccccc2[N+](=O)[O-])cc1 [Example 173] | 400
Cc1ccc(S(=O)(=O)N(Cc2ccc(C#N)cc2)Cc2ccccn2)cc1 [Example 174] | 1500
Cc1cccc(S(=O)(=O)N(Cc2ccc(C#N)cc2)Cc2ccccn2)c1 [Example 175] | 3500
